The values below come from patent US20240228488A1 (TAKEDA PHARMACEUTICAL COMPANY LIMITED, priority 2021, published 2024).

The target of experiment [1] is human activated kallikrein enzyme (Homo sapiens, UniProt P03952). In words: Plasma kallikrein inhibition, fluorogenic PFR-AMC substrate, 500 pM activated kallikrein format. In kind it is biochemical. The following applies: 500 pM activated kallikrein, 300 uM PFR-AMC, 30 min preincubation, 10 min reaction; read-out: Primary Dose Response Assay: Average EC50. The gist of the method: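 Enzyme at 500 pM preincubated 30 min RT with inhibitors in 20 mM Tris pH 7.5, 1 mM EDTA, 150 mM NaCl, 0.1% PEG-400, 0.1% Triton X-100. Reaction started with 300 uM PFR-AMC, run 10 min RT; fluorescence read at 460 nm emission, 380 nm excitation. EC50 reported in ranges.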
human activated kallikrein enzyme, sequence (P03952 391-638 limits assumed): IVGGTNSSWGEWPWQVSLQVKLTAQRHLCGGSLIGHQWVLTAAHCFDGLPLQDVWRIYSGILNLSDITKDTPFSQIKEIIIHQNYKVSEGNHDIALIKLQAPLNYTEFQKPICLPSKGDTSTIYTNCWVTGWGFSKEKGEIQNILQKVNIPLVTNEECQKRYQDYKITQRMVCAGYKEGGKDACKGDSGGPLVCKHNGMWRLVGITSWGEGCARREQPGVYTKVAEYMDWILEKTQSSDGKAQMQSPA
human activated kallikrein enzyme, sequence (P03952 20-390 partner limits assumed): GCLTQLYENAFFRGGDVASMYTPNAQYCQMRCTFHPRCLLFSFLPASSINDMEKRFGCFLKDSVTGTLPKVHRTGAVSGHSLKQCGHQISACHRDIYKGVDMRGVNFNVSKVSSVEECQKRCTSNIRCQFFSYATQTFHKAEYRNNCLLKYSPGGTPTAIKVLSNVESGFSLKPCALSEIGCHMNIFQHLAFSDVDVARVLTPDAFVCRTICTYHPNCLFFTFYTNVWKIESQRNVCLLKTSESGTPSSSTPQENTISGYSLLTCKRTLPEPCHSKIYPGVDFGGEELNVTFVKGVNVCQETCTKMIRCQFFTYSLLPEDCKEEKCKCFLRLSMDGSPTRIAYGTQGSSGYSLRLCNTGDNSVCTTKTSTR

In another experiment the target is T1, plasma kallikrein (Homo sapiens, UniProt P03952).
T1 construct: from tissue
T1 sequence (P03952 391-638 limits assumed): as the sequence (P03952 391-638 limits assumed) above
T1 sequence (P03952 20-390 partner limits assumed): as the sequence (P03952 20-390 partner limits assumed) above
In words: Neat human plasma assay, FXIIa contact pathway-activated, PFR-AMC substrate. In kind it is biochemical. The following applies: citrated human plasma 78% final, 10 nM human FXIIa, 100 μM PFR-AMC; read-out: Human Plasma Assay: IC90. The gist of the method: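 Citrated human plasma (78% final) with compound, contact-activated by 10 nM human FXIIa in pKal buffer pH 7.5, with 100 μM PFR-AMC. Fluorescence (360/480 nm) followed 5 min at room temperature; rates versus concentration fitted by 4-parameter equation for IC50/IC90.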

pEC50: −log10 of the molar value. Some results are limits rather than exact numbers.

For orientation: pEC50 means the EC50 on a negative log10 scale, so that one unit is a factor of ten. As a reminder, the IC90 is the concentration at which the effect reaches the 90% level. On to `Cc1ccnc([C@H]2C[C@@H]2C(=O)Nc2cc(NCc3cn4cc(C5CC5)cc(N5C(=O)N(C)C(=O)C56CC6)c4n3)nc(C)n2)n1` [Example 357, (1S,2S)-N-(6-(((6-cyclopropyl-8-(6-methyl-5,7-dioxo-4,6-diazaspiro[2.4]heptan-4-yl)imidazo[1,2-a]pyridin-2-yl)methyl)amino)-2-methylpyrimidin-4-yl)-2-(4-methylpyrimidin-2-yl)cyclopropane-1-carboxamide], for which the pEC50 in experiment [1] is > 9.00. Moreover, the IC90 on plasma kallikrein was < 400 nM.
With `CC[C@@H](Nc1cc(NC(=O)[C@H]2C[C@@H]2c2nccc(C)n2)nc(C)n1)c1cn2cc(C3CC3)cc(N3CC(=O)N(C)C3=O)c2n1` [Example 358, (1S,2S)-N-(6-(((R)-1-(6-cyclopropyl-8-(3-methyl-2,4-dioxoimidazolidin-1-yl)imidazo[1,2-a]pyridin-2-yl)propyl)amino)-2-methylpyrimidin-4-yl)-2-(4-methylpyrimidin-2-yl)cyclopropane-1-carboxamide], the pEC50 in experiment [1] was > 9.00. The IC90 at plasma kallikrein was 400 to 1500 nM.
On to `Cc1ccnc([C@H]2C[C@@H]2C(=O)Nc2cc(N(C)Cc3cn4cc(C5CC5)cc(N5CC(=O)N(CC(C)(C)O)C5=O)c4n3)nc(C)n2)n1` [Example 359, (1S,2S)-N-(6-(((6-cyclopropyl-8-(3-(2-hydroxy-2-methylpropyl)-2,4-dioxoimidazolidin-1-yl)imidazo[1,2-a]pyridin-2-yl)methyl)(methyl)amino)-2-methylpyrimidin-4-yl)-2-(4-methylpyrimidin-2-yl)cyclopropane-1-carboxamide], for which the pEC50 in experiment [1] was > 9.00. For the same molecule, the IC90 at plasma kallikrein lay within 400 to 1500 nM.
The like results for `CCN(Cc1cn2cc(C3CC3)cc(N3CC(=O)N(C)C3=O)c2n1)c1cc(NC(=O)[C@H]2C[C@@H]2c2nccc(C)n2)nc(C)n1` [Example 360, (1S,2S)-N-(6-(((6-cyclopropyl-8-(3-methyl-2,4-dioxoimidazolidin-1-yl)imidazo[1,2-a]pyridin-2-yl)methyl)(ethyl)amino)-2-methylpyrimidin-4-yl)-2-(4-methylpyrimidin-2-yl)cyclopropane-1-carboxamide] were, in that order, 8.00 to 9.00 and 400 to 1500 nM.
For the molecule `Cc1ccnc([C@H]2C[C@@H]2C(=O)Nc2cc(N[C@H](C)c3cn4cc(C5CC5)cc(S(C)(=O)=O)c4n3)nc(C)n2)n1` [Example 361, (1S,2S)-N-(6-(((R)-1-(6-cyclopropyl-8-(methylsulfonyl)imidazo[1,2-a]pyridin-2-yl)ethyl)amino)-2-methylpyrimidin-4-yl)-2-(4-methylpyrimidin-2-yl)cyclopropane-1-carboxamide], the pEC50 in experiment [1] is > 9.00. Further, the IC90 at plasma kallikrein was in the range of 400 to 1500 nM.
Consider `Cc1ccnc([C@H]2C[C@@H]2C(=O)Nc2cc(NC(C)c3cn4cc(C5CC5)cc(S(C)(=O)=O)c4n3)nc(C)n2)n1` (stereo partly drawn) [Example 363, (1S,2S)-N-(6-((1-(6-cyclopropyl-8-(methylsulfonyl)imidazo[1,2-a]pyridin-2-yl)ethyl)amino)-2-methylpyrimidin-4-yl)-2-(4-methylpyrimidin-2-yl)cyclopropane-1-carboxamide], for which the pEC50 in experiment [1] is > 9.00. Further, the concentration for an effect of 90% (IC90) on plasma kallikrein fell in the range of 1500 to 10000 nM.
For the molecule `Cc1ccnc([C@H]2C[C@@H]2C(=O)Nc2cc(NC(C)c3cn4cc(C5CC5)cc(N5CCN(C)C5=O)c4n3)nc(C)n2)n1` (stereo partly drawn) [Example 364, (1S,2S)-N-(6-((1-(6-cyclopropyl-8-(3-methyl-2-oxoimidazolidin-1-yl)imidazo[1,2-a]pyridin-2-yl)ethyl)amino)-2-methylpyrimidin-4-yl)-2-(4-methylpyrimidin-2-yl)cyclopropane-1-carboxamide], in experiment [1], the pEC50 is > 9.00. Besides, the IC90 at plasma kallikrein was 400 to 1500 nM.
For `Cc1ccnc([C@H]2C[C@@H]2C(=O)Nc2cc(NCc3cn4cc(C5CC5)cc(N5CC(=O)N(C)C5=O)c4n3)nc(C)n2)n1` [Example 365, (1S,2S)-N-(6-(((6-cyclopropyl-8-(3-methyl-2,4-dioxoimidazolidin-1-yl)imidazo[1,2-a]pyridin-2-yl)methyl)amino)-2-methylpyrimidin-4-yl)-2-(4-methylpyrimidin-2-yl)cyclopropane-1-carboxamide] the same measures were > 9.00 and < 400 nM.
Regarding `Cc1ccnc([C@H]2C[C@@H]2C(=O)Nc2cc(NCc3cn4cc(C5CC5)cc(-n5c(=O)n(C)c(=O)n5C)c4n3)ncn2)n1` [Example 367, (1S,2S)-N-(6-(((6-cyclopropyl-8-(2,4-dimethyl-3,5-dioxo-1,2,4-triazolidin-1-yl)imidazo[1,2-a]pyridin-2-yl)methyl)amino)pyrimidin-4-yl)-2-(4-methylpyrimidin-2-yl)cyclopropane-1-carboxamide], the pEC50 in experiment [1] was > 9.00. In addition, the IC90 at plasma kallikrein fell in the range of 400 to 1500 nM.
As to `Cc1ccnc([C@H]2C[C@@H]2C(=O)Nc2cc(N(C)Cc3cn4cc(C5CC5)cc(N5CC(=O)N(CC(C)(C)O)C5=O)c4n3)ncn2)n1` [Example 368, (1S,2S)-N-(6-(((6-cyclopropyl-8-(3-(2-hydroxy-2-methylpropyl)-2,4-dioxoimidazolidin-1-yl)imidazo[1,2-a]pyridin-2-yl)methyl)(methyl)amino)pyrimidin-4-yl)-2-(4-methylpyrimidin-2-yl)cyclopropane-1-carboxamide], in experiment [1], the pEC50 was > 9.00. Further, the IC90 on plasma kallikrein is < 400 nM.
For `Cc1ccnc([C@H]2C[C@@H]2C(=O)Nc2cc(N(C)C(C)c3cn4cc(C5CC5)cc(N5CC(=O)N(C)C5=O)c4n3)ncn2)n1` (stereo partly drawn) [Example 369, (1S,2S)-N-(6-((1-(6-cyclopropyl-8-(3-methyl-2,4-dioxoimidazolidin-1-yl)imidazo[1,2-a]pyridin-2-yl)ethyl)(methyl)amino)pyrimidin-4-yl)-2-(4-methylpyrimidin-2-yl)cyclopropane-1-carboxamide], the pEC50 in experiment [1] is 8.00 to 9.00. Also, the IC90 on plasma kallikrein is 1500 to 10000 nM.
On to `Cc1ccnc([C@H]2C[C@@H]2C(=O)Nc2cc(N(CC(=O)OCc3ccccc3)Cc3cn4cc(C5CC5)cc(N5CC(=O)N(C)C5=O)c4n3)ncn2)n1` [Example 371, benzyl N-((6-cyclopropyl-8-(3-methyl-2,4-dioxoimidazolidin-1-yl)imidazo[1,2-a]pyridin-2-yl)methyl)-N-(6-((1S,2S)-2-(4-methylpyrimidin-2-yl)cyclopropane-1-carboxamido)pyrimidin-4-yl)glycinate], for which, in experiment [1], the pEC50 was 8.00 to 9.00. At plasma kallikrein, the IC90 lay in the range of 1500 to 10000 nM.
For `Cc1ccnc([C@H]2C[C@@H]2C(=O)Nc2cc(NCc3cn4cc(C5CC5)cc(N5CC6(COC6)OC5=O)c4n3)ncn2)n1` [Example 372, (1S,2S)-N-(6-(((6-cyclopropyl-8-(6-oxo-2,5-dioxa-7-azaspiro[3.4]octan-7-yl)imidazo[1,2-a]pyridin-2-yl)methyl)amino)pyrimidin-4-yl)-2-(4-methylpyrimidin-2-yl)cyclopropane-1-carboxamide] the same measures were > 9.00 and < 400 nM.
As to `COCC(Nc1cc(NC(=O)[C@H]2C[C@@H]2c2nccc(C)n2)ncn1)c1cn2cc(C3CC3)cc(N3CC(=O)N(C)C3=O)c2n1` (stereo partly drawn) [Example 373, (1S,2S)-N-(6-((1-(6-cyclopropyl-8-(3-methyl-2,4-dioxoimidazolidin-1-yl)imidazo[1,2-a]pyridin-2-yl)-2-methoxyethyl)amino)pyrimidin-4-yl)-2-(4-methylpyrimidin-2-yl)cyclopropane-1-carboxamide], in experiment [1], the pEC50 was 8.00 to 9.00. Also, the IC90 on plasma kallikrein was in the range of 400 to 1500 nM.
For `Cc1ccnc([C@H]2C[C@@H]2C(=O)Nc2cc(NCc3cn4cc(C5(F)CC5)cc(N5CC(=O)N(C)C5=O)c4n3)ncn2)n1` [Example 374, (1S,2S)-N-(6-(((6-(1-fluorocyclopropyl)-8-(3-methyl-2,4-dioxoimidazolidin-1-yl)imidazo[1,2-a]pyridin-2-yl)methyl)amino)pyrimidin-4-yl)-2-(4-methylpyrimidin-2-yl)cyclopropane-1-carboxamide] the same measures were > 9.00 and < 400 nM.
With `Cc1ccnc([C@H]2C[C@@H]2C(=O)Nc2cc(N(C)Cc3cn4cc(C5CC5)cc(N5CC(=O)NC5=O)c4n3)ncn2)n1` [Example 375, (1S,2S)-N-(6-(((6-cyclopropyl-8-(2,4-dioxoimidazolidin-1-yl)imidazo[1,2-a]pyridin-2-yl)methyl)(methyl)amino)pyrimidin-4-yl)-2-(4-methylpyrimidin-2-yl)cyclopropane-1-carboxamide], the pEC50 in experiment [1] is > 9.00. The IC90 on plasma kallikrein was < 400 nM.
As for `Cc1ccnc([C@H]2C[C@@H]2C(=O)Nc2cc(NCc3cn4cc(C5CC5)cc(N5CCOC5=O)c4n3)ncn2)n1` [Example 376, (1S,2S)-N-(6-(((6-cyclopropyl-8-(2-oxooxazolidin-3-yl)imidazo[1,2-a]pyridin-2-yl)methyl)amino)pyrimidin-4-yl)-2-(4-methylpyrimidin-2-yl)cyclopropane-1-carboxamide], in experiment [1], the pEC50 was > 9.00. Moreover, the IC90 on plasma kallikrein is < 400 nM.
For `Cc1ccnc([C@H]2C[C@@H]2C(=O)Nc2cc(NCc3cn4cc(C5CC5)cc(N5CCCC5=O)c4n3)ncn2)n1` [Example 377, (1S,2S)-N-(6-(((6-cyclopropyl-8-(2-oxopyrrolidin-1-yl)imidazo[1,2-a]pyridin-2-yl)methyl)amino)pyrimidin-4-yl)-2-(4-methylpyrimidin-2-yl)cyclopropane-1-carboxamide] the same measures were > 9.00 and 400 to 1500 nM.
